Data taken from patent US20130296539A1, “MAGNETIC RESONANCE IMAGING AGENTS FOR CALCIFICATION” (priority 2012, published 2013).

Legend:
[1] = In-vitro UTE and GRE MRI of HA crystals bound by contrast agent; conditions: short incubation with HA crystals in PBS, UTE sequence TR=200 msec, TE=100 μsec
Method: (§1) MRI can be performed on a 1.5 T GE Signa clinical scanner equipped with a custom low-pass birdcage coil (10 cm length, 6 cm diameter). The custom UTE sequence is based on previous work in the field {Irarrazabal, 1995; Song, 1998}.
1 mM of [Gd^3+-DOTA]-Thr-Pam-Na is added to 5 mg of HA crystals in 50 μL PBS (pH 7.4) and is vortexed for 1 h at RT in a 1.5 mL Eppendorf tube. 5 mg HA in 1 mM of [Gd^3+-DOTA]-Thr and 50 μL PBS is used as a control. MRI, pre- and post-washing with 4×500 μL PBS, are acquired using an UTE sequence (TR=200 msec, TE=100 μsec) or conventional GRE sequence (TR=200 msec, TE=1.8 msec). Other acquisition parameters includes FOV=6 cm, slice thickness=5 mm, matrix size=256×256, NEX=4.

[2] = Contrast agent concentration and TR dependence of UTE MRI signals; conditions: 5 mg HA, 1 h at RT, washed with PBS, UTE MRI TE=100 μsec
Method: as §1
5 mg HA is placed in 1.5 mL plastic Eppendorf tubes, then 0, 0.1, 1, 10, or 100 μM [Gd^3+-DOTA]-Thr-Pam-Na in 50 μL PBS is added to each. After vortexing 1 h at RT, the crystals are washed with 4×500 μL PBS and UTE MRI acquisition is performed using a fixed TE=100 μsec and varying TR of 17, 50, 200, 500 msec. Other acquisition parameters includes FOV=11 cm, slice thickness=10 mm, matrix size=256×256, NEX=2.

[3] = Quantitation of calcium salt specificity by UTE MRI; conditions: 10 μM in PBS, 1 h at RT, UTE MRI before and after washing crystals
Method: as §1
5 mg of HA or the phosphate, oxalate, carbonate, or pyrophosphate salts of calcium is placed in 1.5 ml Eppendorf tube and is incubated with 10 μM [Gd^3+-DOTA]-Thr-Pam-Na in 50 μL PBS for 1 h at RT with continuous vortexing. UTE MRI acquisition is performed pre- and post-washing with 4×500 μL PBS using TR=200 msec and TE=100 μsec. Other acquisition parameters includes FOV=9 cm, slice thickness=10 mm, matrix size=256×256, NEX=2.

[4] = In-vivo UTE MRI of subcutaneously implanted HA crystals; conditions: mice, intravenous injection, minimum of 4 h of clearance; compared with microCT
Method: as §1
50 mg of HA crystals is taken in 300 μL PBS, is implanted subcutaneously at right flank of anesthetized mice. UTE MRI is taken after implantation of HA crystal using TR/TE=200 msec/100 μsec, FOV=6 cm, slice thickness=5 mm, matrix size=256×256. 4 μmol of [Gd^3+-DOTA]-Thr-Pam-Na in 300 μL saline is injected intravenously. After 4 h of clearance, an UTE MRI is taken with same parameters.

[Gd^3+-DOTA]-Thr-Pam-Na
Detection of HA crystals by UTE MRI [1]: able to detect HA crystals with high sensitivity | Lowest incubation concentration resulting in detectable signal enhancement [2]: 1 µM | Specificity for HA over other calcium salts [3]: more than three fold higher specificity for HA over other calcium salts | In-vivo detection of HA crystals by UTE MRI [4]: UTE MRI provides a sensitive detection of HA crystals in-vivo
